US20050203119A1, “Dihydropyridine compounds for treating or preventing metabolic disorders” (priority 2003, published 2005)

Assays:
[1] = system: NIDDM male mice (C57BLKS/J-m+/+Lepr db); assay: Glucose reduction in db/db mouse model, oral once daily for 7 days (Example 111); type: in vivo; settings: for Serum Glucose % Pre-Treatment Baseline: 90 min post-dosing
Procedure: Non-insulin dependent diabetic mellitus (NIDDM) male mice (C57BLKS/J-m+/+Lepr db) weighing 60±5 g (12 weeks of age) provided by the Institute for Animal Reproduction (IAR, Japan) were used. […] The animals were housed in Individually Ventilated Cages Racks (IVC Racks, 36 Mini Isolator systems) throughout the experiment. Each APEC cage was autoclave sterilized and contained 4 mice and then maintained in a hygienic environment under controlled temperature (22-24° C.) and humidity (60-70%) with 12-hour light/dark cycles. The animals were given sterilized lab Chow and sterilized distilled water ad libitum.
Sterilized distilled water, ELISA Insulin Assay Kit (SPI bio, France), glucose (Merck), Glucose-HA assay kit (Wako, Japan), methylcellulose (Sigma), and troglitazone (BioMOL).
Compound 1 was suspended in 0.5% methylcellulose. Compound 1 at 100, 50 and 30 mg/kg as well as vehicle were administered to NIDDM male mice weighing 60±5 g (11-12 weeks of age), orally once daily for 7 consecutive days starting immediately after the first blood sampling (pre-treatment on day 1). Blood sampling was repeated at 90 minutes post-dosing on day 3 and day 7. The dosing volume was 10 ml/kg. Serum glucose level in the pre- and post-treatment periods were determined by enzymatic (Mutaratase-GOD) method. Post-treatment serum glucose value expressed in percentage of respective pre-treatment values were calculated and unpaired Student's t test was then applied for comparison between compound treated and vehicle control groups. Differences were considered significant at P<0.05. In addition, the liver weight and body weight were recorded to determine the ratio of liver to body weight.

[2] = system: obese diabetic mice (C57BL/6 ob/ob); assay: Glucose reduction in ob/ob mouse model (Example 113); type: in vivo; settings: 3.5 hours after administration
Procedure: Genetically mutated obese diabetic mice (C57BL/6 ob/ob) were purchased from the Jackson Laboratory (Bar Harbor, Me.). Eight weeks old male animals were employed in this study. After acclimation, mice were randomized for equivalent mean blood glucose on day 0 with eight mice each group, and received either vehicle or Compound 1 in 0.5% methylcellulose (ps400) by oral gavage once daily for 8 consecutive days. Plasma glucose was monitored 3.5 hours after administration of test compound on day 3 and 8.

[3] = system: C57BLKS/J db/db male mice; assay: Glucose, insulin and triglyceride reduction in db/db mouse model, 10 days (Example 115); type: in vivo; settings: orally once daily for 10 days
Procedure: Compound 1 was evaluated for its effect on plasma glucose, triglyceride and insulin in C57BLKS/J db/db male mice.
Compound 1 or vehicle was administered orally once daily for 10 consecutive days. Animals were divided into either vehicle or treatment groups (n=8 per group), and blood glucose, serum triglyceride and insulin were tested at the end of assay by Ani Lytic Inc (Baltimore, Md.).

[4] = system: C57BLKS/J db/db male mice; assay: Glucose reduction, Compound 1 in combination with rosiglitazone, db/db mice (Example 116, FIG. 2); type: in vivo, mouse; settings: Compound 1 alone, 50 mg/kg
[5] = system: Male SD rats; settings: rat, in vivo
Procedure: Male SD rats weighing 350-420 g were anesthetized with 2-3% isoflurane. The femoral artery and vein were catheterized and connected to a mean arterial blood pressure (MAP) and heart rate (HR) monitor and a continuous intravenous infusion pump. Under anesthesia, MAP and HR were recorded 10-20 minutes prior to and during the continuous intravenous infusion of test compounds for 60-70 minutes. The infusion rate, 0.14-0.16 ml/kg/minute, was determined on the basis of vehicle tolerance. The infusion doses, 1.0-1.25 mg/kg/minute, were selected, depending upon the solubility of the compound and effects on MAP and HR of the positive control compounds at the lethal dose. The maximal effective dose or lethal dose of test compounds were determined accordingly.

CCOC(=O)C1=C(COCCN)NC2=C(C(=O)CC(C)(C)C2)C1c1ccccc1Cl (centres unmarked) [Compound 1, 2-(2-amino-ethoxymethyl)-4-(2-chloro-phenyl)-7,7-dimethyl-5-oxo-1,4,5,6,7,8-Hexahydro-quinoline-3-carboxylic acid ethyl ester]
Serum Glucose % Pre-Treatment Baseline ([1]; Day 3, 30 mg/kg orally once daily): 96.7 ± 2.2 %
Serum Glucose % Pre-Treatment Baseline ([1]; Day 3, 50 mg/kg orally once daily): 86.5 ± 3.5 %
Serum Glucose % Pre-Treatment Baseline ([1]; Day 3, 100 mg/kg orally once daily): 85.6 ± 2.4 %
Serum Glucose % Pre-Treatment Baseline ([1]; Day 7, 30 mg/kg orally once daily): 91.6 ± 3.7%
Serum Glucose % Pre-Treatment Baseline ([1]; Day 7, 50 mg/kg orally once daily): 82.9 ± 4.4 %
Serum Glucose % Pre-Treatment Baseline ([1]; Day 7, 100 mg/kg orally once daily): 80.9 ± 3.3 %
liver weight relative to body weight ([1]; any treatment group (30, 50, 100 mg/kg, 7 days) vs vehicle control): No significant difference
percent normalized reduction of serum glucose vs vehicle ([2]; day 3, 50 mg/kg oral gavage once daily): 30%
percent normalized reduction of serum glucose vs vehicle ([2]; day 8, 50 mg/kg oral gavage once daily): 22.3%
% Reduction (relative to vehicle), Glucose [3]: 14%
% Reduction (relative to vehicle), Insulin [3]: 19%
% Reduction (relative to vehicle), Triglyceride [3]: 17%
Glucose ([3]; end of assay): 327.50 mg/dL
Insulin ([3]; end of assay): 11.32 ng/mL
Triglyceride ([3]; end of assay): 336.13 mg/dL
blood glucose level, monotherapy [4]: reduced glucose levels
Lethal Dose [5]: >70 mg/kg
